# Laboratory results reported in patent US20250171437A1 (Agios Pharmaceuticals,Inc., priority 2022, published 2025).
# Target: T1, human PAH with the R408W mutation (A375 R408W cells) (Homo sapiens, UniProt P00439, R408W)
# T1 construct: expressed in transfected cells
# T1 sequence (P00439 1-452 R408W): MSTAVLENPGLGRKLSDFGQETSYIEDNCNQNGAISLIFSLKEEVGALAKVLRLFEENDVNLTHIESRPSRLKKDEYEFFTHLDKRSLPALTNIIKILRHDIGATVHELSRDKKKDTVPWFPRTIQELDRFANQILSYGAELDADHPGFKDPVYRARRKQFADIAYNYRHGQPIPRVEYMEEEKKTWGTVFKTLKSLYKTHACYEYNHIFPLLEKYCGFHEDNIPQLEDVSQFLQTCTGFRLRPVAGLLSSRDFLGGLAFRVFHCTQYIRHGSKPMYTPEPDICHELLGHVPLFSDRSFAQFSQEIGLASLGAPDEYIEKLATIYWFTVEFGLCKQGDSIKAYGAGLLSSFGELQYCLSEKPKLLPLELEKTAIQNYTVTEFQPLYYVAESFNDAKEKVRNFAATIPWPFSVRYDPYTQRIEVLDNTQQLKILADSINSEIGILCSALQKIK
# Assay: Cell Based Phenylalanine Flux Assay
# Conditions: A375 R408W cells; 24 hrs with compound, then 20 μM sepiapterin and 800 μM 13C9,15N-Phenylalanine for 4 hours; 13C-Tyrosine by LC-MS; average where tested multiple times
# Procedure, shortened: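 AC50 is derived from LC-MS of 13C-tyrosine in the media after a 4 h pulse of 800 μM 13C9,15N-phenylalanine plus 20 μM sepiapterin. The A375 R408W PAH cells had received duplicate 10-point, 2-fold compound dilutions (0.5% DMSO) for 24 h beforehand.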
row,AC50,SMILES
1,0.5 to 1 µM,"CC(C)(O)c1nc(C(F)F)c(C(=O)N2CCc3[nH]cnc3[C@H]2c2nc3cc(Br)ccc3o2)o1 [Example 415, [(4S)-4-(5-bromo-1,3-benzoxazol-2-yl)-1,4,6,7-tetrahydroimidazo[4,5-c]pyridin-5-yl]-[4-(difluoromethyl)-2-(1-hydroxy-1-methyl-ethyl)oxazol-5-yl]methanone]"
2,≤ 0.5 µM,"CC(C)(C)c1ncc(C(=O)N2CCc3[nH]cnc3[C@H]2c2nc3cc(F)ccc3o2)o1 [Example 21, (S)-(2-(tert-butyl)oxazol-5-yl)(4-(5-fluorobenzo[d]oxazol-2-yl)-6,7-dihydro-1H-imidazo[4,5-c]pyridin-5(4H)-yl)methanone]"
3,1 to 5 µM,"Cn1cc(-c2nnc(C(=O)N3CCc4[nH]cnc4[C@H]3c3nc4cc(F)ccc4o3)o2)cn1 [Example 67, (S)-(4-(5-fluorobenzo[d]oxazol-2-yl)-6,7-dihydro-1H-imidazo[4,5-c]pyridin-5(4H)-yl)(5-(1-methyl-1H-pyrazol-4-yl)-1,3,4-oxadiazol-2-yl)methanone]"
4,1 to 5 µM,"O=C(c1nnc(-c2cc(C(F)(F)F)ccn2)o1)N1CCc2[nH]cnc2[C@@H]1c1nc2cc(F)ccc2o1 [Example 121, [(4R)-4-(5-fluoro-1,3-benzoxazol-2-yl)-1,4,6,7-tetrahydroimidazo[4,5-c]pyridin-5-yl]-[5-[4-(trifluoromethyl)-2-pyridyl]-1,3,4-oxadiazol-2-yl]methanone]"
5,0.5 to 1 µM,"Cc1ccc2nc([C@H]3c4nc[nH]c4CCN3C(=O)c3ocnc3C(F)F)oc2c1 [Example 883, (R)-(4-(difluoromethyl)oxazol-5-yl)(4-(6-methylbenzo[d]oxazol-2-yl)-6,7-dihydro-1H-imidazo[4,5-c]pyridin-5(4H)-yl)methanone]"
6,0.5 to 1 µM,"CC(C)n1ncnc1C(=O)N1CCc2[nH]cnc2[C@@H]1c1nc2cccc(F)c2o1 [Example 708, (R)-(4-(7-fluorobenzo[d]oxazol-2-yl)-6,7-dihydro-1H-imidazo[4,5-c]pyridin-5(4H)-yl)(1-isopropyl-1H-1,2,4-triazol-5-yl)methanone]"
7,≤ 0.5 µM,"Cn1cc(-c2ccc3c(C(=O)N4CCc5[nH]cnc5[C@H]4c4nc5c(F)cccc5o4)cnn3c2)cn1 [Example 541, (S)-(4-(4-fluorobenzo[d]oxazol-2-yl)-6,7-dihydro-1H-imidazo[4,5-c]pyridin-5(4H)-yl)(6-(1-methyl-1H-pyrazol-4-yl)pyrazolo[1,5-a]pyridin-3-yl)methanone]"
8,1 to 5 µM,"CC(C)(O)c1nc(CF)c(C(=O)N2CCc3[nH]cnc3[C@@H]2c2nc3cc(F)ccc3o2)o1 [Example 212, (R)-(4-(5-fluorobenzo[d]oxazol-2-yl)-6,7-dihydro-1H-imidazo[4,5-c]pyridin-5(4H)-yl)(4-(fluoromethyl)-2-(2-hydroxypropan-2-yl)oxazol-5-yl)methanone]"
9,1 to 5 µM,"Cc1nc(C(C)(C)O)oc1C(=O)N1CCc2[nH]cnc2[C@@H]1c1nc2cccc(F)c2o1 [Example 267, (R)-(4-(7-fluorobenzo[d]oxazol-2-yl)-6,7-dihydro-1H-imidazo[4,5-c]pyridin-5(4H)-yl)(2-(2-hydroxypropan-2-yl)-4-methyloxazol-5-yl)methanone]"
10,1 to 5 µM,"CN(C)CCc1cn2ncc(C(=O)N3CCc4[nH]cnc4[C@@H]3c3nc4cc(F)ccc4o3)c2cc1Cl [Example 80, (R)-(5-chloro-6-(2-(dimethylamino)ethyl)pyrazolo[1,5-a]pyridin-3-yl)(4-(5-fluorobenzo[d]oxazol-2-yl)-6,7-dihydro-1H-imidazo[4,5-c]pyridin-5(4H)-yl)methanone]"
11,0.5 to 1 µM,"CC(C)(O)c1nc(C(F)F)c(C(=O)N2CCc3[nH]cnc3[C@@H]2c2nc3cccc(OC(F)(F)F)c3o2)o1 [Example 530, (R)-(4-(difluoromethyl)-2-(2-hydroxypropan-2-yl)oxazol-5-yl)(4-(7-(trifluoromethoxy)benzo[d]oxazol-2-yl)-6,7-dihydro-1H-imidazo[4,5-c]pyridin-5(4H)-yl)methanone]"
12,≤ 0.5 µM,"O=C(c1nnc(-c2c(F)cccc2F)o1)N1CCc2[nH]cnc2[C@H]1c1nc2cc(F)ccc2o1 [Example 25, (S)-(5-(2,6-difluorophenyl)-1,3,4-oxadiazol-2-yl)(4-(5-fluorobenzo[d]oxazol-2-yl)-6,7-dihydro-1H-imidazo[4,5-c]pyridin-5(4H)-yl)methanone]"
13,≥ 5 µM,"CN(C)CCc1ccc2c(C(=O)N3CCc4[nH]cnc4[C@@H]3c3nc4cc(F)ccc4o3)cnn2c1 [Example 48, (R)-(6-(2-(dimethylamino)ethyl)pyrazolo[1,5-a]pyridin-3-yl)(4-(5-fluorobenzo[d]oxazol-2-yl)-6,7-dihydro-1H-imidazo[4,5-c]pyridin-5(4H)-yl)methanone]"
14,≤ 0.5 µM,"O=C(c1oc(-c2cncnc2)nc1C(F)F)N1CCc2[nH]cnc2[C@@H]1c1nc2cccc(F)c2o1 [Example 741, (R)-(4-(difluoromethyl)-2-(pyrimidin-5-yl)oxazol-5-yl)(4-(7-fluorobenzo[d]oxazol-2-yl)-6,7-dihydro-1H-imidazo[4,5-c]pyridin-5(4H)-yl)methanone]"
15,1 to 5 µM,"Cc1nc([C@H](C)O)oc1C(=O)N1CCc2[nH]cnc2[C@H]1c1nc2ccc(F)cc2o1 [Example 241, ((S)-4-(6-fluorobenzo[d]oxazol-2-yl)-6,7-dihydro-1H-imidazo[4,5-c]pyridin-5(4H)-yl)(2-((S)-1-hydroxyethyl)-4-methyloxazol-5-yl)methanone]"
16,≤ 0.5 µM,"O=C(c1ocnc1C(F)F)N1CCc2[nH]cnc2[C@H]1c1nc2cccc(OC(F)(F)F)c2o1 [Example 532, (S)-(4-(difluoromethyl)oxazol-5-yl)(4-(7-(trifluoromethoxy)benzo[d]oxazol-2-yl)-6,7-dihydro-1H-imidazo[4,5-c]pyridin-5(4H)-yl)methanone]"
17,0.5 to 1 µM,"O=C(c1nnc(-c2ccccn2)o1)N1CCc2[nH]cnc2[C@@H]1c1nc2cccc(F)c2o1 [Example 336, (R)-(4-(7-fluorobenzo[d]oxazol-2-yl)-6,7-dihydro-1H-imidazo[4,5-c]pyridin-5(4H)-yl)(5-(pyridin-2-yl)-1,3,4-oxadiazol-2-yl)methanone]"
18,≤ 0.5 µM,"CC(C)(O)c1nc(C(F)F)c(C(=O)N2CCc3[nH]cnc3[C@H]2c2nc3c(F)cccc3o2)o1 [Example 199, (S)-(4-(difluoromethyl)-2-(2-hydroxypropan-2-yl)oxazol-5-yl)(4-(4-fluorobenzo[d]oxazol-2-yl)-6,7-dihydro-1H-imidazo[4,5-c]pyridin-5(4H)-yl)methanone]"

# Same assay, conditions: A375 cells expressing R408W PAH; 24 hrs with compound, then 20 μM sepiapterin and 800 μM 13C9,15N-Phenylalanine for 4 hours; 13C-Tyrosine by LC-MS; average where tested multiple times
row,AC50,SMILES
1,1 to 5 µM,O=C(c1cnc(-c2ccccn2)s1)N1CCc2[nH]cnc2C1c1nc2ccc(Br)cc2o1 (stereo not shown)
2,≥ 5 µM,O=C(c1cn[nH]c1C(F)F)N1CCc2[nH]cnc2C1c1nc2cc(F)ccc2o1 (stereo not shown)
3,1 to 5 µM,O=C(c1cncs1)N1CCc2[nH]cnc2C1c1nc2cc(F)ccc2o1 (stereo not shown)
4,≥ 5 µM,Cc1ccc2oc(C3c4nc[nH]c4CCN3C(=O)c3nnc(C(C)(C)O)o3)nc2c1 (stereo not shown)
5,1 to 5 µM,Cc1nc(C(C)O)oc1C(=O)N1CCc2[nH]cnc2C1c1nc2ccc(F)cc2o1 (stereo not shown)
6,1 to 5 µM,O=C(c1cnn2cc(N3CCOCC3)ccc12)N1CCc2[nH]cnc2C1c1nc2cc(F)ccc2o1 (stereo not shown)
7,1 to 5 µM,Cn1nccc1C(=O)N1CCc2[nH]cnc2C1c1nc2cccc(F)c2o1 (stereo not shown)
